Measurements taken from article PMC12661400, “Oral bioavailable ITRI-148 degrades androgen receptor variants and overcomes antiandrogen resistance in advanced prostate cancer” (Neoplasia (New York, N.Y.), 2025).
Read-outs that look alike come from different tables or passages of the source.

Key:
CWR22Rv1 xenografts = assay: Hormone-intact CWR22Rv1 xenograft study; type: in vivo
Excerpt: Immunodifficient male CB-17 SCID mice (CB17/Icr-Prkdc^scid/IcrIcoCrlBltw) and NOD SCID mice (NOD.CB17-Prkdc^scid/NCrCrlBltw) mice at four to six weeks of age were purchased from BioLASCO Taiwan Co., Ilan, Taiwan. All mice were housed in conventional cages in the AAALAC Full Accreditation (2011) in Industrial Technology Research Institute and were allowed to acclimatize and recover from shipping-related stress for one week prior to the study. The health of the mice was monitored by daily observations. Animals were kept in rooms at temperature of 22–26°C with 40–70 % humidity, positive pressure, 60 % air recirculation, ventilation rate 15–20 changes per hour, and a controlled light-dark cycle (12–12 hours). The order and location of each animal cage was randomly assigned to minimize potential confounders. CWR22Rv1 cells (5 × 10^6) were suspended in 100 μL of PBS with 30 % Matrigel and subcutaneously implanted into the right flank of male CB-17 SCID mice. Tumors were measured with calipers, and tumor size was calculated as follows: tumor volume (V) = (L × S^2)/2 (L, longest diameter, mm; S, shortest diameter, mm). When mean tumor volume reached 150–200 mm^3, the mice were randomly assigned into indicated groups (n = 5-6/ group) and the day of initiating treatments was assigned as day 0. VCaP cells (5 × 10⁶) suspended in 50 % Matrigel were subcutaneously implanted into male NOD SCID mice. […] Tumor size and body weight of the animals were monitored and recorded two to three times per week. […] The drug antitumor efficacy was presented as percentages of TGI of each tested animal, calculated as follows: [1 − (final tumor volume ^treated group – initial tumor volume ^treated group) / (final tumor volume ^vehicle group – initial tumor volume ^vehicle group)] × 100. Body weight of each mouse was also compared to that on the first day of treatment (day 0) and expressed as a percentage of day 0 value. […] Statistical analysis of the differences between two drug and vehicle treated groups was determined by two-tailed Student’s t-test.

[1] = Metabolic stability in liver microsomes; type: in vitro ADME; settings: for Remaining of intact drug (%): 1 μM, incubation up to 60 minutes; for half-life at 1 μM: pH 7.4, read-out: Plasma Stability t1/2 (microsome panel)
Procedure: The metabolic stability of all PROTAC compounds in the screening phase (Table 1) was evaluated using mouse liver microsomes. Incubations were performed at 37 °C in phosphate buffer (pH 7.4) containing NADPH (1 mM), 0.5 mg/mL microsomal protein and 1 μM ITRI-148 (0.25 % DMSO) for 0, 5, 20, or 30 minutes, followed by quenching with acetonitrile (1:3, v/v) for HPLC analysis. To evaluate the species-specific metabolism of ITRI-148, its stability was assessed in liver microsomes from human, dog, rat, and mouse using same incubation conditions as above, with the time extending to 0, 15, 30, 45, and 60 minutes, followed by acetonitrile quenching (1:10) and LC-MS/MS analysis.

[2] = Repeated-dose toxicity study: mortality, body weight, tolerability; type: in vivo
Procedure: (§1) Repeated-dose toxicity and toxicokinetic studies
(§2) Repeated-dose oral toxicity study and toxicokinetic (TK) profiling was conducted in Sprague-Dawley rats. ITRI-148 was administered once daily using oral gavage at doses of 100, 300, 600, and 1000 mg/kg/day for 7 consecutive days, followed by a 7-day recovery period. Each dose group comprised 3 animals designated for toxicokinetic (TK) analysis and 6 animals for dose-range finding (DRF) evaluation. Clinical observations, body weights, and food consumption were monitored daily throughout the dosing and recovery periods. […]
(§3) All samples were analyzed in duplicate. Hematology and serum clinical chemistry analyses were performed on Day 7 (end of dosing) and Day 14 (end of recovery). At necropsy, organ weights (including heart, liver, kidney, spleen, thymus, and adrenal glands) were recorded, and gross pathological changes were examined. All procedures were conducted in compliance with institutional animal care and use guidelines. […]
(§4) Targeting androgen receptor and the variants by an orally bioavailable
(§5) Proteolysis Targeting Chimeras compound in castration resistant prostate cancer

[3] = Repeated-dose toxicity study: absolute organ weights; type: in vivo, Sprague-Dawley rats; settings: rats
Procedure: as §1, §2, §3, §4, §5

[4] = PO 100 mg/kg/day 7 days, Day 14 (recovery)
[5] = PO 300 mg/kg/day 7 days, Day 14 (recovery)
[6] = PO 600 mg/kg/day 7 days, Day 14 (recovery)
[7] = PO 1000 mg/kg/day 7 days, Day 7
[8] = PO 1000 mg/kg/day 7 days, Day 14 (recovery)

SMILES: O=C1CCC(N2C(=O)c3cccc(NCC(=O)N4CCC(N5CCC(C#Cc6ccc(C7CCN(C8=Nn9c(nnc9C(F)(F)F)CC8)CC7)cc6)CC5)CC4)c3C2=O)C(=O)N1 (centres unmarked) [ITRI-148]
- toxicity reflected by weight-loss of the animals (CWR22Rv1 xenografts; PO 30-60 mg/kg BID): No toxicity reflected by weight-loss of the animals was observed
- tumor growth inhibition (TGI) (CWR22Rv1 xenografts; oral 30 mg/kg BID): 38.08%
- tumor growth inhibition (TGI) (CWR22Rv1 xenografts; oral 60 mg/kg BID): 69.39%
- Remaining of intact drug (%) ([1]; dog liver microsomes): 88.3 ± 4.3%
- Remaining of intact drug (%) ([1]; human liver microsomes): 85.9 ± 2.2%
- half-life at 1 μM ([1]; dog liver microsomes): > 1 h
- half-life at 1 μM ([1]; human liver microsomes): > 1 h
- half-life at 1 μM ([1]; rat liver microsomes): > 1 h
- Remaining of intact drug (%) ([1]; rat liver microsomes): 75.3 ± 1.2%
- margin of maximum rat dose (1000 mg/kg) over the efficacious dose used in xenograft model ([2]; rat, in vivo): > 10 fold
- body weight loss ([2]; rats, PO 100-1000 mg/kg/day, any treatment group): No animal exhibited >10% weight loss in any treatment group
- Absolute organ weight: Heart ([3]; PO 100 mg/kg/day 7 days, Day 7): 1.417 ± 0.443 g
- Absolute organ weight: Kidney ([3]; PO 100 mg/kg/day 7 days, Day 7): 2.656 ± 0.136 g
- Absolute organ weight: Liver ([3]; PO 100 mg/kg/day 7 days, Day 7): 13.915 ± 1.565 g
- Absolute organ weight: Spleen ([3]; PO 100 mg/kg/day 7 days, Day 7): 0.536 ± 0.112 g
- Absolute organ weight: Thymus ([3]; PO 100 mg/kg/day 7 days, Day 7): 0.419 ± 0.079 g
- Absolute organ weight: adrenal glands ([3]; PO 100 mg/kg/day 7 days, Day 7): 0.056 ± 0.012 g
- Absolute organ weight: Heart [3, 4]: 1.139 ± 0.079 g
- Absolute organ weight: Kidney [3, 4]: 2.65 ± 0.021 g
- Absolute organ weight: Liver [3, 4]: 11.06 ± 0.639 g
- Absolute organ weight: Spleen [3, 4]: 0.538 ± 0.05 g
- Absolute organ weight: Thymus [3, 4]: 0.319 ± 0.039 g
- Absolute organ weight: adrenal glands [3, 4]: 0.084 ± 0.059 g
- Absolute organ weight: Heart ([3]; PO 300 mg/kg/day 7 days, Day 7): 1.369 ± 0.173 g
- Absolute organ weight: Kidney ([3]; PO 300 mg/kg/day 7 days, Day 7): 2.966 ± 0.426 g
- Absolute organ weight: Liver ([3]; PO 300 mg/kg/day 7 days, Day 7): 13.69 ± 1.088 g
- Absolute organ weight: Spleen ([3]; PO 300 mg/kg/day 7 days, Day 7): 0.558 ± 0.035 g
- Absolute organ weight: Thymus ([3]; PO 300 mg/kg/day 7 days, Day 7): 0.377 ± 0.079 g
- Absolute organ weight: adrenal glands ([3]; PO 300 mg/kg/day 7 days, Day 7): 0.058 ± 0.022 g
- Absolute organ weight: Heart [3, 5]: 1.252 ± 0.229 g
- Absolute organ weight: Kidney [3, 5]: 2.748 ± 0.366 g
- Absolute organ weight: Liver [3, 5]: 12.08 ± 0.721 g
- Absolute organ weight: Spleen [3, 5]: 0.629 ± 0.088 g
- Absolute organ weight: Thymus [3, 5]: 0.314 ± 0.042 g
- Absolute organ weight: adrenal glands [3, 5]: 0.06 ± 0.016 g
- Absolute organ weight: Heart ([3]; PO 600 mg/kg/day 7 days, Day 7): 1.269 ± 0.209 g
- Absolute organ weight: Kidney ([3]; PO 600 mg/kg/day 7 days, Day 7): 2.661 ± 0.129 g
- Absolute organ weight: Liver ([3]; PO 600 mg/kg/day 7 days, Day 7): 13.396 ± 2.201 g
- Absolute organ weight: Spleen ([3]; PO 600 mg/kg/day 7 days, Day 7): 0.509 ± 0.093 g
- Absolute organ weight: Thymus ([3]; PO 600 mg/kg/day 7 days, Day 7): 0.319 ± 0.054 g
- Absolute organ weight: adrenal glands ([3]; PO 600 mg/kg/day 7 days, Day 7): 0.058 ± 0.001 g
- Absolute organ weight: Heart [3, 6]: 1.242 ± 0.08 g
- Absolute organ weight: Kidney [3, 6]: 2.759 ± 0.179 g
- Absolute organ weight: Liver [3, 6]: 12.382 ± 0.877 g
- Absolute organ weight: Spleen [3, 6]: 0.594 ± 0.066 g
- Absolute organ weight: Thymus [3, 6]: 0.394 ± 0.041 g
- Absolute organ weight: adrenal glands [3, 6]: 0.07 ± 0.027 g
- Absolute organ weight: Heart [3, 7]: 1.259 ± 0.118 g
- Absolute organ weight: Kidney [3, 7]: 3.022 ± 0.127 g
- Absolute organ weight: Liver [3, 7]: 13.349 ± 1.256 g
- Absolute organ weight: Spleen [3, 7]: 0.388 ± 0.035 g
- Absolute organ weight: Thymus [3, 7]: 0.121 ± 0.021 g
- Absolute organ weight: adrenal glands [3, 7]: 0.068 ± 0.012 g
- Absolute organ weight: Heart [3, 8]: 1.306 ± 0.066 g
- Absolute organ weight: Kidney [3, 8]: 2.763 ± 0.229 g
- Absolute organ weight: Liver [3, 8]: 11.072 ± 0.774 g
- Absolute organ weight: Spleen [3, 8]: 0.506 ± 0.023 g
- Absolute organ weight: Thymus [3, 8]: 0.355 ± 0.119 g
- Absolute organ weight: adrenal glands [3, 8]: 0.062 ± 0.009 g
